Source: patent publication US20130303575A1, “ADMINISTRATION OF AN INHIBITOR OF HDAC” (priority 2007, published 2013)
Entries after “also recorded” stand apart in the source; their conditions may differ.

Legend:
[1] = system: histone H3, H4 and protein acetylation; test: Histone H3, H4 and protein acetylation, p21 and caspase-3 in PBMCs and BMMCs (Example 3); type: in vivo, human
Experimental: Serial marrow and/or peripheral blood cells were collected at weekly intervals to examine PAMC-induced changes in histone acetylation.
Changes in histone H3, H4 and protein acetylation (immunocytochemistry, multiparameter flow cytometry and western blot analysis.) Immunocytochemical analysis of histone H3 was performed on bone marrow mononuclear cells (BMMCs) as described previously. The multiparameter flow cytometric analysis of protein acetylation versus caspase-3 activation was performed on serial BM aspirates using monoclonal anti-acetylated lysine antibody (Cell Signaling Technology, Beverly, Mass.) followed by FITC-conjugated goat anti-mouse antibody (Caltag Laboratories, Burlingame, Calif.) and polyclonal PE-conjugated anti-caspase-3, active form antibody (BD Pharmingen, Sand Diego, Calif.). The analysis of protein acetylation versus p21 expression or CD 34 expression was performed using polyclonal anti-acetylated lysine antibody (Cell Signaling Technology) versus monoclonal anti-p21 antibody (BD Transduction Laboratories, San Jose, Calif.) or monoclonal anti-CD34 antibody (BD Pharmingen). Primary antibodies were detected using PE-conjugated goat anti-mouse and FITC-conjugated goat anti-rabbit antibodies (Caltag Laboratories). For staining, BMMCs were isolated using Ficoll-Paque Plus (Amersham Biosciences, Piscataway, N.J.) fixed in 0.4% paraformaldehyde, permeabilized with 0.4% Triton X-100, incubated with primary antibodies for 1 hour at room temperature, washed, incubated with secondary antibodies for 1 hour, washed and analyzed on a FACSCalibur flow cytometer (Becton Dickinson, San Jose, Calif.) using CellQuest software for acquisition and FloJo software for analysis.
For western blot analysis of histone acetylation, PBMCs and BMMCs were isolated using Ficoll-Paque Plus (Amersham Biosciences). Histones from the cells were prepared as follows: Cells were washed in 2 ml HBSS and disrupted by a 1 mL ice-cold lysis buffer A (10 mM Tris pH 7.6, 5 mM butyric acid, 1% Triton X-100, 1 mM MgCl2, and 1 mM PMSF). Nuclei were collected by centrifugation at 14,000 rpm for 15 min. The pellet was resuspended once with 250 μL ice-cold lysis buffer B (10 mM Tris pH 7.6, 0.25 M Sucrose, 3 mM CaCl2 and 5 mM butyric acid). Sulfuric acid was added to a concentration of 0.4 N and the tubes were incubated at 4° C. overnight. Debris was pelleted by centrifugation, and the supernatant was collected. Histones were precipitated by addition of 10 volumes of acetone and incubation at −20° C. overnight. Pellets were collected by centrifugation, briefly dried under vacuum and resuspended with dH2O. The total protein content was determined by a bicinchoninic acid assay kit (Pierce, Rockford, Ill.). The proteins 10-30 μg were separated by 15% SDS PAGE and visualized using the antibodies for acetyl-histone H3, acetyl-histone H4, and histone H2A, all from Upstate Biotechnologies (Lake Placid, N.Y.). The immunoreactive proteins were detected using ECL western blotting analysis system (Amersham Biosciences). Radiographic films of histone acetylation were scanned and digitized (UN-SCAN-IT), Silk Scientific, UT).

[2] = clinical; conditions: human, in vivo
Experimental: Histone H3 and H4 acetylation was analyzed in peripheral blood mononuclear cells (PBMCs) by immunohistochemical detection.
Blood samples (5 ml) were taken at the following times:
Blood was centrifuged for 10 minutes at 2000 g at room temperature within approximately 30 minutes after withdrawal; plasma was separated and stored at −18° C. to −25° C. until analysis.

[3] = system: refractory solid tumors or lymphomas; test: Tumor response by Response Evaluation Criteria on Solid Tumors (Example 1); type: in vivo, human
Experimental: Tumor response was assessed every 6 weeks on the biweekly schedule (Schedule A) and every 8 weeks on the twice-weekly (Schedule B) and weekly (Schedule C) schedules, using appropriate imaging studies. Tumor responses were defined by the Response Evaluation Criteria on Solid Tumors.

[4] = system: advanced acute leukemias; test: Clinical outcome and biologic effects in adults with advanced acute leukemias (Example 3); type: in vivo, human
Experimental: To assess response to therapy, a BM aspiration was performed weekly for 4 weeks during the first cycle, at the end of each subsequent cycle, or at any time leukemia regrowth was suspected. Complete response (CR) required a normal BM aspirate with absence of identifiable leukemia, absolute neutrophils count (ANC) of 1×10^9/L or higher, platelet count of 100×10^9/L or higher, and absence of blasts in peripheral blood (PB). […] Progressive disease (PD) was defined as >50% increase in marrow or PB blasts from baseline or development of extramedullary leukemia.

With `Nc1ccccc1NC(=O)c1ccc(CNC(=O)OCc2cccnc2)cc1` [SNDX-275, N-(2-aminophenyl) 4-[N-(pyrid-3-yl)methyloxycarbonylaminomethyl]benzamide] the “histone H3 and H4 acetylation by western blotting” value ([1]; PBMCs and BMMCs, 8 patients at DL 4 and 1 patient at DL 5) was “increase in histone H3 and H4 acetylation”, the “protein and H3/H4 acetylation, p21 expression, caspase-3 activation” value ([1]; bone marrow mononuclear cells) was “increase in protein and H3/H4 acetylation, p21 expression, and caspase-3 activation” and the “specimens with caspase-3 activation” value ([1]; flow cytometric analysis) was 67%. The “time at which increase in histone H3 and H4 acetylation was evident” value ([1]; following SNDX-275 treatment, 4 patients with early PB specimens) was 8 to 12 h, the “persistence of histone acetylation following last SNDX-275 administration” value ([1]; in vivo) was 2-3 weeks and the “histone H3 acetylation by immunocytochemistry” value ([1]; lowest dose level) was “increase in histone H3 acetylation”. The Tmax [2] was 30 to 120 min, the “apparent drug clearance (CL/F)” value [2] was “low” and the AUC ([2]; 2 mg/m2) was 107 ng·h/mL. The AUC(0-t) ([2]; 2 mg/m2, AUC(0-48)) was 60.1 ng·h/mL, the Cmax ([2]; 2 mg/m2, Cmax) was 25.3 ng/mL and the AUC ([2]; 2 mg/m2, Mean AUC) was 135 ng·h/mL. It also gave a half-life ([2]; 2 mg/m2, Mean t1/2) of 2.25 days, a Tmax ([2]; 2 mg/m2, Median Tmax) of 36 min and a half-life ([2]; 2 mg/m2, T1/2) of 4.17 days. The Tmax ([2]; 2 mg/m2, Tmax) was 30 min, the AUC ([2]; 4 mg/m2, Mean AUC) was 323 ng·h/mL and the half-life ([2]; 4 mg/m2, Mean t1/2) was 3.66 days. The Tmax ([2]; 4 mg/m2, Median Tmax) was 30 min, the T1/2 ([2]; 5 mg/m2) was 77 h and the AUC ([2]; 5 mg/m2, AUC) was 432 ng·h/mL. For the same molecule, the AUC(0-t) ([2]; 5 mg/m2, AUC(0-48)) was 153 ng·h/mL, the Cmax ([2]; 5 mg/m2, Cmax) was 72 ng/mL and the AUC ([2]; 5 mg/m2, Mean AUC) was 494 ng·h/mL. The Cmax ([2]; 5 mg/m2, Mean Cmax) was 77.3 ng/mL, the half-life ([2]; 5 mg/m2, Mean t1/2) was 5.54 days and the Tmax ([2]; 5 mg/m2, Median Tmax) was 30 min. The half-life ([2]; 5 mg/m2, T1/2) was 4.67 days, the “Mean CL/F” value ([2]; 6 mg/m2) was 16.7 L/h and the AUC ([2]; 6 mg/m2, AUC) was 412 ng·h/mL. It also gave an AUC(0-t) ([2]; 6 mg/m2, AUC(0-48)) of 170 ng·h/mL, an AUC ([2]; 6 mg/m2, Mean AUC) of 459 ng·h/mL and a Cmax ([2]; 6 mg/m2, Mean Cmax) of 37.3 ng/mL. It also gave a half-life ([2]; 6 mg/m2, Mean t1/2) of 4.46 days, a Tmax ([2]; 6 mg/m2, Median Tmax) of 60 min and a half-life ([2]; 6 mg/m2, T1/2) of 4.25 days. The half-life ([2]; T1/2) was ~4.17 days, the Tmax ([2]; Tmax) was ≤ 60 min and the “patients with stable disease” value ([3]; all schedules) was 7. For the same molecule, the “patients with partial response” value ([3]; melanoma, Schedule A) was “One”, the “time on SNDX-275 of the patient with partial response” value ([3]; one melanoma patient) was ≥ 22 months and the “duration of stable disease” value ([3]; one patient with Ewing's sarcoma, Schedule A) was ≥ 60 weeks. The “duration of stable disease” value ([3]; one patient with melanoma, Schedule B) was ≥ 20 weeks, the “duration of stable disease” value ([3]; one patient with rectal carcinoma, Schedule A) was ≥ 38 weeks and the “CR or PR by standard criteria” value ([4]; 34 patients evaluable for response) was “No patients achieved CR or PR”. For the same molecule, the “patients with a 50% reduction in WBC counts” value ([4]; Fifteen patients) was 38.5%, the “Type of Response” value ([4]; patient 2, 4 mg/m^2 × 2/4 weeks, 4 cycles, bone marrow blast response) was “Bone marrow PR (>50% → 12% blasts, cycle 1)” and the “Type of Response” value ([4]; patient 2, 4 mg/m^2 × 2/4 weeks, 4 cycles, myeloid differentiation by ANC) was “Differentiation in myeloid lineage (ANC 504/μL →”. The ANCmax ([4]; patient 2, 4 mg/m^2 × 2/4 weeks, cycle 1, from ANC 504/μL) was “ANCmax 1410/μL, cycle 1)”, the “Type of Response” value ([4]; patient 5, 4 mg/m^2 × 2/4 weeks (cycle 1), 6 mg/m^2 × 2/4 weeks (cycle 2 and 3), 3 cycles) was “Stable disease” and the “Type of Response” value ([4]; patient 11, 8 mg/m^2 × 2/4 weeks, 1 cycle) was “Decreased transfusion requirements”. For the same molecule, the “Type of Response” value ([4]; patient 14, 8 mg/m^2 × 4/6 weeks, 1 cycle) was “Resolution of bone pain”, the “Type of Response” value ([4]; patient 15, 8 mg/m^2 × 4/6 weeks, 1.75 cycles, bone marrow blast response) was “Bone marrow PR (35% → 14% blasts, cycle 1)” and the “Type of Response” value ([4]; patient 15, 8 mg/m^2 × 4/6 weeks, 1.75 cycles, myeloid differentiation by ANC) was “Differentiation in myeloid lineage (ANC 288/μL →”. The ANCmax ([4]; patient 15, 8 mg/m^2 × 4/6 weeks, cycle 1, from ANC 288/μL) was 2052 µL⁻¹, the ANCmax ([4]; patient 15, 8 mg/m^2 × 4/6 weeks, cycle 2) was 5546 µL⁻¹ and the “Type of Response” value ([4]; patient 18, 8 mg/m^2 × 4/6 weeks, 1.25 cycles) was “Differentiation in myeloid lineage (ANC 124/μL →”. The ANCmax ([4]; patient 18, 8 mg/m^2 × 4/6 weeks, cycle 1, from ANC 124/μL) was “ANCmax 680/μL, cycle 1)”, the “Type of Response” value ([4]; patient 20, 8 mg/m^2 × 4/6 weeks, 1 cycle) was “Decreased transfusion requirements” and the “Type of Response” value ([4]; patient 24, 8 mg/m^2 × 4/6 weeks, 4.75 cycles, bone marrow blast response) was “Bone marrow PR (30% → 20% blasts, cycle 1)”. For the same molecule, the “Type of Response” value ([4]; patient 24, 8 mg/m^2 × 4/6 weeks, 4.75 cycles, myeloid differentiation by ANC) was “Differentiation in myeloid lineage (ANC 520/μL →”, the ANCmax ([4]; patient 24, 8 mg/m^2 × 4/6 weeks, cycle 1, from ANC 520/μL) was 3637 µL⁻¹ and the ANCmax ([4]; patient 24, 8 mg/m^2 × 4/6 weeks, cycle 3) was 4456 µL⁻¹. For the same molecule, the “Type of Response” value ([4]; patient 27, 8 mg/m^2 × 4/6 weeks, 5 cycles) was “Stable disease; also recorded: Peripheral blood 21% → 0% blasts”, the “Type of Response” value ([4]; patient 33, 10 mg/m^2 × 4/6 weeks, 2 cycles) was “Resolution of extramedullary chloroma” and the “Type of Response” value ([4]; patient 34, 10 mg/m^2 × 4/6 weeks, 2 cycles, bone marrow blast response) was “Bone marrow CR (54% → 3% blasts, cycle 1)”. The “Type of Response” value ([4]; patient 34, 10 mg/m^2 × 4/6 weeks, 2 cycles, myeloid differentiation by ANC) was “Differentiation in myeloid lineage (ANC 103/μL →”, the ANCmax ([4]; patient 34, 10 mg/m^2 × 4/6 weeks, cycle 1, from ANC 103/μL) was 854 µL⁻¹ and the ANCmax ([4]; patient 34, 10 mg/m^2 × 4/6 weeks, cycle 2) was 2929 µL⁻¹. The “median time to 50% reduction in WBC counts” value ([4]; range 3-28) was 6 days.
